In US20100056468A1, “Pyrimidine Derivatives As Anticancer Agents” (University Health Network, priority 2007, published 2010):

How the values were obtained:
Hs ODCase = biological target: T1, Hs ODCase (Homo sapiens, UniProt P11172); assay: Reversible (competitive) inhibition of ODCase, calorimetric assay; format: biochemical; conditions: 37° C., 60 nM enzyme
T1 construct: ODCase region of human UMP synthase
Protocol: The stock solution of enzyme (60 μM) was prepared in 50 mM Tris (pH 7.5), 20 mM DTT, and 40 mM NaCl and incubated overnight at 4° C. This stock sample was later used to prepare the enzyme assay samples. The enzyme was kept on ice during the experiment. The enzyme stock was diluted with 50 mM Tris buffer containing 1 mM DTT to prepare 60 nM enzyme assay samples. The final substrate concentration was 15 or 20 μM. Concentrated samples of inhibitors were prepared in 50 mM Tris (pH 7.5). The volumes and concentrations of the enzyme and substrate were the same as described above for the reaction without inhibitor. All three compounds were tested in a competitive inhibition assay where enzyme is mixed with the inhibitor and the reaction is initiated by the substrate addition. Assay samples were prepared in 50 mM Tris, 1 mM DTT. The final assay concentration of 5-F-6-azido-UMP was 0, 0.25, 0.50, 0.75, 1.0 μM. The assay samples were prepared with 0, 0.2, 0.4, 1.0, and 2.0 μM and 0, 50, 100, 250, 500 μM 5-fluoro-6-ethyl-UMP.
The initial data analyses were done in Origin 7.0 software. The raw data representing the heat change over time were converted to the reaction rate at each recorded time point. A Michaelis-Menten plot was constructed and the data were fitted to MM equation (Eq. 1) to determine the kinetic parameters KM and kcat. The molar enthalpy (ΔH) was also automatically calculated.
To calculate the Ki the data were exported to GraFit 5.0 program. The data points were fitted to the competitive inhibition equation (Eq. 2) and the Ki was estimated from the Dixon plot.

Mt ODCase = Mt ODCase (Methanothermobacter thermautotrophicus, UniProt O26232); assay: biochemical; set-up: species or system M. thermoautotrophicum; conditions: reversible inhibition, 20 nM enzyme, 40 μM OMP
[1] = tested on: leukemias (OCI-AML-1, OCI-AML-2, SKW3), lymphomas (OCI-Ly-7), multiple myeloma (OCI-My-2); assay: In vitro cell proliferation assay (WST.1), summary over cell lines; format: cell-based; conditions: Homo sapiens; OCI-AML-1, OCI-AML-2, SKW3, OCI-Ly-7, OCI-My-2; read-out: IC50 values, range over cell lines
Protocol: (§1) These cell lines were grown in Iscove's MDM supplemented with 5% fetal calf serum (FCS), 50 μM 2-mercaptoethanol, 100 μg/ml penicillin, and 100 μg/ml streptomycin. Cell lines growing in suspension were maintained at 0.5-1.5×10^6 cell/ml, while adherent cell lines were maintained at subconfluent densities.
(§2) Cell lines were seeded in triplicate at 10^4 cells/100 μl in 96-well plates. Peripheral blood mononuclear cells were seeded in triplicate at 10^5 cells/100 μl in 96-well plate. Different test compounds were added immediately at final concentrations ranging between 0 to 100 μM. All compounds were dissolved in sterile deionized water, so water was added to the control wells. On day 3, WST.1 assay (Roche) was used to measure the effect of different test compounds on cell growth. WST.1 assay is a calorimetric assay for the nonradioactive quantification of cell proliferation, cell viability, and cytotoxicity. The assay was performed according to manufacturer's instructions (Roche). It relies on the cleavage by cellular enzymes of WST.1 (water soluble tetrazolium salt: 4-[3-(4-iodophenyl)-2-(4-nitrophenyl)-2H-5-tetrazolio]-1,3-benzene disulfonate) to formazan. The amount of formazan dye formed correlates to the number of metabolically active cells in the culture and is readily read in an ELISA microplate reader using an absorbance wavelength of 440 nm. These OD values are plotted against concentrations of different compounds and IC50 is determined for each compound.

OCI-AML-1 [2] = assay: Apoptosis assay (Annexin V/PI, FACS); format: cell-based, human; conditions: OCI-AML-1, 4 μM
Protocol: (§3) Cells were seeded in duplicate at 10^5 cells/ml in 24-well plates. 4 μM final concentration of compounds Io, In or Iag (Table 2) were added immediately after seeding. Water was added to the control wells. Every 24 hr, cells were harvested, washed in PBS, and stained with Annexin V/propidium iodide (PI) (1:200) using Annexin-V-FLUOS staining kit (Roche) according to the manufacturer's instructions. Annexin V is a Ca^2+− dependent phospholipids-binding protein with high affinity for phosphatidylserine (PS). It can be used as a probe to detect PS exposure on the outer leaflet of the cell membrane and is therefore widely used for detection of apoptotic cells. Unlike apoptotic cells (Annexin V^+/PI^−), necrotic cells are Annexin V^+PI^+. PI is a DNA stain. FACS was used to analyze the staining.
(§4) To determine whether reduced expansion of different cell lines in culture with Io, In, and Iag could be attributed to a decrease in cell survival, we stained treated and control cells with Annexin V and PI. Four cell lines (OCI-AML-1, OCI-Ly7, OCI-My2, and SKW3) were cultured in presence of 4 μM of […] for 4 days. Cells were harvested daily and Annexin V/PI staining was done by FACS. Our results clearly show an increase in the percentage of apoptotic (annexin V^+PI^−) cells cultured with Io, In, or Iag compared to the control cells (Table 6). Increased cell death was first observed on day 2 of culture.

OCI-My-2 [3] = assay: Apoptosis assay (Annexin V/PI, FACS); format: cell-based, human; conditions: OCI-My-2, 4 μM
Protocol: as §3, §4

OCI-Ly-7 [4] = assay: Apoptosis assay (Annexin V/PI, FACS); format: cell-based, human; conditions: OCI-Ly-7, 4 μM
Protocol: as §3, §4

SKW3 [5] = assay: Apoptosis assay (Annexin V/PI, FACS); format: cell-based, human; conditions: SKW3, 4 μM
Protocol: as §3, §4

MCF7 = assay: In vitro cell proliferation assay (WST.1, Table 5); format: cell-based; conditions: Homo sapiens, 72 h; MCF7, day 3
Protocol: as §1, §2

OCI-AML-1 [6] = assay: In vitro cell proliferation assay (WST.1, Table 5); format: cell-based; conditions: Homo sapiens, 72 h; OCI-AML-1, day 3
Protocol: as §1, §2

OCI-My-2 [7] = assay: In vitro cell proliferation assay (WST.1, Table 5); format: cell-based; conditions: Homo sapiens, 72 h; OCI-My-2, day 3
Protocol: as §1, §2

OCI-AML-2 = assay: In vitro cell proliferation assay (WST.1, Table 5); format: cell-based; conditions: Homo sapiens, OCI-AML2, 72 h; OCI-AML-2, day 3
Protocol: as §1, §2

MDA468 = assay: In vitro cell proliferation assay (WST.1, Table 5); format: cell-based; conditions: Homo sapiens, 72 h; MDA468, day 3
Protocol: as §1, §2

OCI-Ly-7 [8] = assay: In vitro cell proliferation assay (WST.1, Table 5); format: cell-based; conditions: Homo sapiens, OCI-Ly7, 72 h; OCI-Ly-7, day 3
Protocol: as §1, §2

PC3 = assay: In vitro cell proliferation assay (WST.1, Table 5); format: cell-based; conditions: Homo sapiens, PC-3, 72 h; PC3, day 3
Protocol: as §1, §2

SKW3 [9] = assay: In vitro cell proliferation assay (WST.1, Table 5); format: cell-based; conditions: Homo sapiens, 72 h; SKW3, day 3
Protocol: as §1, §2

LOX = assay: In vitro cell proliferation assay (WST.1, Table 5); format: cell-based, human; conditions: day 3
Protocol: as §1, §2

OCVR4 = assay: In vitro cell proliferation assay (WST.1, Table 5); format: cell-based; conditions: Homo sapiens, 72 h; OCVR4, day 3
Protocol: as §1, §2

CCD967 = assay: In vitro cell proliferation assay (WST.1, Table 5); format: cell-based; conditions: Homo sapiens, CCD-967, 72 h; CCD967 normal skin line, day 3
Protocol: as §1, §2

T47D = assay: In vitro cell proliferation assay (WST.1, Table 5); format: cell-based; conditions: Homo sapiens, 72 h, day 3
Protocol: as §1, §2

COLO205 = assay: In vitro cell proliferation assay (WST.1, Table 5); format: cell-based; conditions: Homo sapiens, COLO 205, 72 h; COLO205, day 3
Protocol: as §1, §2

SNB19 = assay: In vitro cell proliferation assay (WST.1, Table 5); format: cell-based; conditions: Homo sapiens, SNB-19, 72 h; SNB19, day 3
Protocol: as §1, §2

HS58T = assay: In vitro cell proliferation assay (WST.1, Table 5); format: cell-based; conditions: Homo sapiens, 72 h, day 3
Protocol: as §1, §2

SMILES	Ki (Hs ODCase) [nM]	Ki (Mt ODCase) [nM]	IC50 [1] [nM]	Fold increase in % of apoptotic (annexinV+PI−) cells: drug-treated vs.control (OCI-AML-1 [2]; day 1) [fold]	Fold increase in % of apoptotic (annexinV+PI−) cells: drug-treated vs.control (OCI-AML-1 [2]; day 2) [fold]	Fold increase in % of apoptotic (annexinV+PI−) cells: drug-treated vs.control (OCI-AML-1 [2]; day 3) [fold]	Fold increase in % of apoptotic (annexinV+PI−) cells: drug-treated vs.control (OCI-My-2 [3]; day 1) [fold]	Fold increase in % of apoptotic (annexinV+PI−) cells: drug-treated vs.control (OCI-My-2 [3]; day 2) [fold]	Fold increase in % of apoptotic (annexinV+PI−) cells: drug-treated vs.control (OCI-My-2 [3]; day 3) [fold]	Fold increase in % of apoptotic (annexinV+PI−) cells: drug-treated vs.control (OCI-Ly-7 [4]; day 1) [fold]	Fold increase in % of apoptotic (annexinV+PI−) cells: drug-treated vs.control (OCI-Ly-7 [4]; day 2) [fold]	IC50 (MCF7) [nM]	IC50 (OCI-AML-1 [6]) [nM]	IC50 (OCI-My-2 [7]) [nM]	IC50 (OCI-AML-2) [nM]	IC50 (MDA468) [nM]	IC50 (OCI-Ly-7 [8]) [nM]	IC50 (PC3) [nM]	IC50 (SKW3 [9]) [nM]	IC50 (LOX; Homo sapiens, 72 h) [nM]	also measured
O=c1[nH]c(=O)n([C@@H]2O[C@H](COP(=O)(O)O)[C@@H](O)[C@H]2O)cc1F [Compound 5-F-UMP, 5-F-UMP, reference compound]	97800 ± 5900	646000 ± 15000	–	–	–	–	–	–	–	–	–	–	–	–	–	–	–	–	–	–	–
O=Cc1c(F)c(=O)[nH]c(=O)n1C1OC(CO)C(O)C1O (centres unmarked) [Iag]	–	–	300 to 2100	1.4	5.3	14	0.77	1.7	2.7	0.82	2.1	23700	300	400	700	1900	600	> 100000	300	300	Fold increase in % of apoptotic (annexinV+PI−) cells: drug-treated vs.control (OCI-Ly-7 [4]; day 3): 6.2 fold; Fold increase in % of apoptotic (annexinV+PI−) cells: drug-treated vs.control (SKW3 [5]; day 1): 1.2 fold; Fold increase in % of apoptotic (annexinV+PI−) cells: drug-treated vs.control (SKW3 [5]; day 2): 4.6 fold; Fold increase in % of apoptotic (annexinV+PI−) cells: drug-treated vs.control (SKW3 [5]; day 3): 5.2 fold; IC50 (LOX): 400 nM
Nc1c(F)c(=O)[nH]c(=O)n1[C@@H]1O[C@H](CO)[C@@H](O)[C@H]1O [In, 5-Fluoro-6-amino uridine]	16600 ± 700	–	300 to 2100	–	–	–	–	–	–	–	–	1400	700	900	900	2600	1300	> 4000	600	3400	IC50 (OCVR4): 2000 nM; IC50 (CCD967): > 4000 nM; IC50 (T47D): > 4000 nM; IC50 (COLO205): 3300 nM; IC50 (SNB19): > 4000 nM; IC50 (HS58T): > 4000 nM
[N-]=[N+]=Nc1c(F)c(=O)[nH]c(=O)n1[C@@H]1O[C@H](CO)[C@@H](O)[C@H]1O [Io, 5-fluoro-6-azido uridine]	–	357 ± 28	300 to 2100	1.5	9.3	16	0.86	1.9	2.8	0.74	1.9	1000	600	600	700	1800	700	> 4000	400	2300	Fold increase in % of apoptotic (annexinV+PI−) cells: drug-treated vs.control (OCI-Ly-7 [4]; day 3): 6.6 fold; Fold increase in % of apoptotic (annexinV+PI−) cells: drug-treated vs.control (SKW3 [5]; day 1): 1.2 fold; Fold increase in % of apoptotic (annexinV+PI−) cells: drug-treated vs.control (SKW3 [5]; day 2): 4.7 fold; Fold increase in % of apoptotic (annexinV+PI−) cells: drug-treated vs.control (SKW3 [5]; day 3): 4.4 fold; IC50 (OCVR4): 1500 nM; IC50 (CCD967): > 4000 nM; IC50 (T47D): > 4000 nM; IC50 (COLO205): 3800 nM; IC50 (SNB19): > 4000 nM; IC50 (HS58T): > 4000 nM
